What was measured:
Type in all cases: in vivo
[1] = tested on: Ipomoea hederacea (IPOHE); experiment: B1 Post-Emergence Efficacy—Test 1; settings: post-emergence application, 1000 g/ha, evaluated after 13 days
Procedure: (§1) B1 Post-Emergence Efficacy—Test 1 Seeds of a variety of test species are sown in standard soil in pots:—Solanum nigrum (SOLNI), Amaranthus retoflexus (AMARE), Setaria faberi (SETFA), Echinochloa crus-galli (ECHCG), Ipomoea hederacea (IPOHE), Lolium perenne (LOLPE). After 8 days cultivation (post-emergence) under controlled conditions in a glasshouse (at 24/16° C., day/night; 14 hours light; 65% humidity), the plants are sprayed with an aqueous spray solution derived from the formulation of the technical active ingredient in acetone/water (50:50) solution containing 0.5% Tween 20 (polyoxyethylene sorbitan monolaurate, CAS RN 9005-64-5). Compounds are applied at 1000 g/ha. The test plants are then grown in a glasshouse under controlled conditions in a glasshouse (at 24/16° C., day/night; 14 hours light; 65% humidity) and watered twice daily. After 13 days, the test is evaluated for the percentage damage caused to the plant. The biological activities are assessed on a five point scale (5=80-100%; 4=60-79%; 3=40-59%; 2=20-39%; 1=0-19%). A blank value in the table is indicative that the compound was not tested on that species.

[2] = tested on: Echinochloa crus-galli (ECHCG); experiment: B1 Post-Emergence Efficacy—Test 1; settings: post-emergence application, 1000 g/ha, evaluated after 13 days
Procedure: as §1

Setaria faberi (SETFA) [3] = experiment: B1 Post-Emergence Efficacy—Test 1; settings: post-emergence application, 1000 g/ha, evaluated after 13 days
Procedure: as §1

Lolium perenne (LOLPE) [4] = experiment: B1 Post-Emergence Efficacy—Test 1; settings: post-emergence application, 1000 g/ha, evaluated after 13 days
Procedure: as §1

Solanum nigrum (SOLNI) [5] = experiment: B1 Post-Emergence Efficacy—Test 1; settings: post-emergence application, 1000 g/ha, evaluated after 13 days
Procedure: as §1

[6] = tested on: Amaranthus retoflexus (AMARE); experiment: B1 Post-Emergence Efficacy—Test 1; settings: post-emergence application, 1000 g/ha, evaluated after 13 days
Procedure: as §1

Solanum nigrum (SOLNI) [7] = experiment: B5 Pre-Emergence Efficacy—Test 2; settings: 250 g/ha, evaluated after 13 days
In short: (§2)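 Pre-emergence glasshouse test: seeds sown in standard soil, sprayed one day later with compound at 250 g/ha in acetone/water (50:50) with 0.5% Tween 20. Grown at 24/16° C day/night, 14 h light, 65% humidity; percentage damage scored after 13 days on a five-point scale (5=80-100% to 1=0-19%).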

[8] = tested on: Amaranthus retoflexus (AMARE); experiment: B5 Pre-Emergence Efficacy—Test 2; settings: 250 g/ha, evaluated after 13 days
In short: as §2

[9] = tested on: Ipomoea hederacea (IPOHE); experiment: B4 Pre-Emergence Efficacy—Test 1; settings: pre-emergence application, 1000 g/ha, evaluated after 13 days
Procedure: (§3) B4 Pre-Emergence Efficacy—Test 1 Seeds of a variety of test species were sown in standard soil in pots: Solanum nigrum (SOLNI), Amaranthus retoflexus (AMARE), Setaria faberi (SETFA), Echinochloa crus-galli (ECHCG), Ipomoea hederacea (IPOHE), Lolium perenne (LOLPE). After cultivation for one day (pre-emergence) under controlled conditions in a glasshouse (at 24/16° C., day/night; 14 hours light; 65% humidity), the plants were sprayed with an aqueous spray solution derived from the formulation of the technical active ingredient in acetone/water (50:50) solution containing 0.5% Tween 20 (polyoxyethelyene sorbitan monolaurate, CAS RN 9005-64-5). Compounds are applied at 1000 g/ha. The test plants were then grown in a glasshouse under controlled conditions (at 24/16° C., day/night; 14 hours light; 65% humidity) and watered twice daily. After 13 days, the test is evaluated for the percentage damage caused to the plant. The biological activities are assessed on a five point scale (5=80-100%; 4=60-79%; 3=40-59%; 2=20-39%; 1=0-19%). A blank value in the table is indicative that the compound was not tested on that species.

[10] = tested on: Echinochloa crus-galli (ECHCG); experiment: B4 Pre-Emergence Efficacy—Test 1; settings: pre-emergence application, 1000 g/ha, evaluated after 13 days
Procedure: as §3

Setaria faberi (SETFA) [11] = experiment: B4 Pre-Emergence Efficacy—Test 1; settings: pre-emergence application, 1000 g/ha, evaluated after 13 days
Procedure: as §3

Lolium perenne (LOLPE) [12] = experiment: B4 Pre-Emergence Efficacy—Test 1; settings: pre-emergence application, 1000 g/ha, evaluated after 13 days
Procedure: as §3

Solanum nigrum (SOLNI) [13] = experiment: B4 Pre-Emergence Efficacy—Test 1; settings: pre-emergence application, 1000 g/ha, evaluated after 13 days
Procedure: as §3

[14] = tested on: Amaranthus retoflexus (AMARE); experiment: B4 Pre-Emergence Efficacy—Test 1; settings: pre-emergence application, 1000 g/ha, evaluated after 13 days
Procedure: as §3

[15] = tested on: Ipomoea hederacea (IPOHE); experiment: B5 Pre-Emergence Efficacy—Test 2; set-up: key: 5-point scale: 5=80-100%, 4=60-79%, 3=40-59%, 2=20-39%, 1=0-19% damage; settings: 250 g/ha, evaluated after 13 days
In short: as §2

[16] = tested on: Echinochloa crus-galli (ECHCG); experiment: B5 Pre-Emergence Efficacy—Test 2; set-up: key: 5-point scale: 5=80-100%, 4=60-79%, 3=40-59%, 2=20-39%, 1=0-19% damage; settings: 250 g/ha, evaluated after 13 days
In short: as §2

Setaria faberi (SETFA) [17] = experiment: B5 Pre-Emergence Efficacy—Test 2; set-up: key: 5-point scale: 5=80-100%, 4=60-79%, 3=40-59%, 2=20-39%, 1=0-19% damage; settings: 250 g/ha, evaluated after 13 days
In short: as §2

Lolium perenne (LOLPE) [18] = experiment: B5 Pre-Emergence Efficacy—Test 2; set-up: key: 5-point scale: 5=80-100%, 4=60-79%, 3=40-59%, 2=20-39%, 1=0-19% damage; settings: 250 g/ha, evaluated after 13 days
In short: as §2

[19] = tested on: Ipomoea hederacea (IPOHE); experiment: B2 Post-Emergence Efficacy—Test 2; settings: post-emergence application, 250 g/ha, evaluated after 13 days (Test 2)
In short: (§4)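 Pot-grown plants sprayed post-emergence 8 days after sowing at 250 g/ha (acetone/water 50:50, 0.5% Tween 20), glasshouse 24/16 °C, 14 h light, 65% humidity. Percentage damage scored after 13 days on a five-point scale (5=80-100% to 1=0-19%).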

[20] = tested on: Echinochloa crus-galli (ECHCG); experiment: B2 Post-Emergence Efficacy—Test 2; settings: post-emergence application, 250 g/ha, evaluated after 13 days (Test 2)
In short: as §4

Setaria faberi (SETFA) [21] = experiment: B2 Post-Emergence Efficacy—Test 2; settings: post-emergence application, 250 g/ha, evaluated after 13 days (Test 2)
In short: as §4

Lolium perenne (LOLPE) [22] = experiment: B2 Post-Emergence Efficacy—Test 2; settings: post-emergence application, 250 g/ha, evaluated after 13 days (Test 2)
In short: as §4

Solanum nigrum (SOLNI) [23] = experiment: B2 Post-Emergence Efficacy—Test 2; settings: post-emergence application, 250 g/ha, evaluated after 13 days (Test 2)
In short: as §4

[24] = tested on: Amaranthus retoflexus (AMARE); experiment: B2 Post-Emergence Efficacy—Test 2; settings: post-emergence application, 250 g/ha, evaluated after 13 days (Test 2)
In short: as §4

Cc1nn(C)c(=O)c(-c2c(F)ccc(Cl)c2CCc2ccc(C#N)cc2)c1O [Compound A-1.036, 4-[2-[6-chloro-3-fluoro-2-(5-hydroxy-2,6-dimethyl-3-oxo-pyridazin-4-yl)phenyl]ethyl]benzonitrile]
5 (5=80-100%): percentage damage caused to the plant, five point scale, IPOHE [1] | percentage damage caused to the plant, five point scale, ECHCG [2] | percentage damage caused to the plant, five point scale, SETFA (Setaria faberi (SETFA) [3]) | percentage damage caused to the plant, five point scale, LOLPE (Lolium perenne (LOLPE) [4]) | percentage damage caused to the plant, five point scale, SOLNI (Solanum nigrum (SOLNI) [5]) | percentage damage caused to the plant, five point scale, AMARE [6] | Control of weed species after pre-emergence application, SOLNI (percentage damage, five point scale) (Solanum nigrum (SOLNI) [7]) | Control of weed species after pre-emergence application, AMARE (percentage damage, five point scale) [8] | percentage damage caused to the plant, five point scale, IPOHE [9] | percentage damage caused to the plant, five point scale, ECHCG [10] | percentage damage caused to the plant, five point scale, SETFA (Setaria faberi (SETFA) [11]) | percentage damage caused to the plant, five point scale, LOLPE (Lolium perenne (LOLPE) [12]) | percentage damage caused to the plant, five point scale, SOLNI (Solanum nigrum (SOLNI) [13]) | percentage damage caused to the plant, five point scale, AMARE [14] | Control of weed species after pre-emergence application, IPOHE (percentage damage, five point scale) [15] | Control of weed species after pre-emergence application, ECHCG (percentage damage, five point scale) [16] | Control of weed species after pre-emergence application, SETFA (percentage damage, five point scale) (Setaria faberi (SETFA) [17]) | Control of weed species after pre-emergence application, LOLPE (percentage damage, five point scale) (Lolium perenne (LOLPE) [18]) | percentage damage caused to the plant, five point scale, IPOHE [19] | percentage damage caused to the plant, five point scale, ECHCG [20] | percentage damage caused to the plant, five point scale, SETFA (Setaria faberi (SETFA) [21]) | percentage damage caused to the plant, five point scale, LOLPE (Lolium perenne (LOLPE) [22]) | percentage damage caused to the plant, five point scale, SOLNI (Solanum nigrum (SOLNI) [23]) | percentage damage caused to the plant, five point scale, AMARE [24]

— patent US12540120B2, “Herbicidal compounds” (SYNGENTA CROP PROTECTION AG, priority 2019, dated 2026)
